Reference: US9212182B2, “Bicyclic sulfonamide compounds as sodium channel inhibitors” (AMGEN INC., priority 2013, dated 2015)

The molecules below were run against Nav 1.7 (Homo sapiens (Human), UniProt Q15858) (assay: in-vitro Nav 1.7 PX (IC50)). Details: not given.
Format: cell-based

Chain of Nav 1.7 (Q15858 whole entry): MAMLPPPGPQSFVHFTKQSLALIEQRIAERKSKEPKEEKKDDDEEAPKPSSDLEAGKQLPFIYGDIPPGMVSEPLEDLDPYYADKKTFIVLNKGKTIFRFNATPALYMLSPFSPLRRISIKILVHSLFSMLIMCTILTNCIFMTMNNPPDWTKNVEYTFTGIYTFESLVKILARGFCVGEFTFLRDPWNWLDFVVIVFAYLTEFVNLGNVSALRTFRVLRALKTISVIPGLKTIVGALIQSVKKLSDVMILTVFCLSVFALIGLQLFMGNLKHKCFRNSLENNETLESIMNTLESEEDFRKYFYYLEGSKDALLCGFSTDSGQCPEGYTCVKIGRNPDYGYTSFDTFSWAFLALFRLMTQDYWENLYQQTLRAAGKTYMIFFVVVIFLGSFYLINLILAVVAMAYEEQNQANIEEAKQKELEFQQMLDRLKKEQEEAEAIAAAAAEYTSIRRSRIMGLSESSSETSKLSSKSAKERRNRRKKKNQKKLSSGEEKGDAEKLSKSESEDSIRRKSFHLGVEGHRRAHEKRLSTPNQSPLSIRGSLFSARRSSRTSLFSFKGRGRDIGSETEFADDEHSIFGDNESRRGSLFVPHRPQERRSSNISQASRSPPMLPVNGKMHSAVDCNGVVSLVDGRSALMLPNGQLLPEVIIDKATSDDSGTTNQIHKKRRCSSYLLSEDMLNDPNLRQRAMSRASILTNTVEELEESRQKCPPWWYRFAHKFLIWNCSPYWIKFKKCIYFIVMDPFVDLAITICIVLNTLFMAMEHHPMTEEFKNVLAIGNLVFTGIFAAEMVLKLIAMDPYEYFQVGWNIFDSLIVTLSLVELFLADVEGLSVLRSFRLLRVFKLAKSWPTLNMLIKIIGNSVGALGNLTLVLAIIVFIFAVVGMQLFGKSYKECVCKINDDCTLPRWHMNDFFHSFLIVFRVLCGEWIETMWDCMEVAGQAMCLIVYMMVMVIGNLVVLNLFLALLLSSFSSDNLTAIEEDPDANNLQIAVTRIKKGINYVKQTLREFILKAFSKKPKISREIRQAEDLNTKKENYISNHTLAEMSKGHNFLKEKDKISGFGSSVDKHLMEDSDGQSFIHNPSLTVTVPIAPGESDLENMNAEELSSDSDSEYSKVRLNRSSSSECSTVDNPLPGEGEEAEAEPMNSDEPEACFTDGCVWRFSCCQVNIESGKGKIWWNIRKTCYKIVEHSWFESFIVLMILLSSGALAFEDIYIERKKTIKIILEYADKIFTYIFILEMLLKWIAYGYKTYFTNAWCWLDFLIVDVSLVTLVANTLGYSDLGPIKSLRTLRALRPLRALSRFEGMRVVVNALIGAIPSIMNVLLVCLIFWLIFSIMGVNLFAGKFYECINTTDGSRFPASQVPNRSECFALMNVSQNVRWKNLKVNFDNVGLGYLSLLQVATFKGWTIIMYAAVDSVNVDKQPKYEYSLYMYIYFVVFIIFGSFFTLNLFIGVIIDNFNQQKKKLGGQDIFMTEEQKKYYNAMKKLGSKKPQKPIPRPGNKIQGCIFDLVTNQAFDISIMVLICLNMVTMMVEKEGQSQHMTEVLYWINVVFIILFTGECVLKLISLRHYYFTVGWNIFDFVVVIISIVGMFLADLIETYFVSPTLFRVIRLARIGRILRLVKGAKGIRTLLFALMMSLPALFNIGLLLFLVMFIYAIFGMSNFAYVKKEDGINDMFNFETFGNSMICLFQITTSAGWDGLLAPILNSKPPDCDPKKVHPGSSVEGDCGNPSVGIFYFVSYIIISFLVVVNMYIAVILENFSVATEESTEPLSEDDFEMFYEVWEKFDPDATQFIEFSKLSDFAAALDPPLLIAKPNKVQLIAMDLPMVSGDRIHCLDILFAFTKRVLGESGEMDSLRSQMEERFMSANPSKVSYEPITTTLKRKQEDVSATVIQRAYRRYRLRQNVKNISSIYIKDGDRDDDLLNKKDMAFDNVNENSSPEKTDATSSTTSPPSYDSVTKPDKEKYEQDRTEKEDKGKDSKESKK

| SMILES | IC50 |
| --- | --- |
| COc1cc(-c2cc(F)cc(Cl)c2)c(F)cc1-n1c(=O)ccc2cc(S(=O)(=O)Nc3cnccn3)ccc21 (atropisomer, axis not shown; (P)) [Example 543, (P)-1-(3′-chloro-2,5′-difluoro-5-methoxy-4-biphenylyl)-2-oxo-N-2-pyrazinyl-1,2-dihydro-6-quinolinesulfonamide] | 13 nM |
| COc1cc(-c2cc(F)cc(Cl)c2)c(F)cc1-n1c(=O)ccc2cc(S(=O)(=O)Nc3ncc(F)cn3)ccc21 (atropisomer, axis not shown; (P)) [Example 544, (P)-1-(3′-chloro-2,5′-difluoro-5-methoxy-4-biphenylyl)-N-(5-fluoro-2-pyrimidinyl)-2-oxo-1,2-dihydro-6-quinolinesulfonamide] | 14 nM |
| COc1cc(-c2cccc(F)c2)c(Cl)cc1-n1c(=O)ccc2cc(S(=O)(=O)Nc3ccon3)c(F)cc21 (atropisomer, axis not shown; (P)) [Example 545, (P)-1-(2-chloro-3′-fluoro-5-methoxy-4-biphenylyl)-7-fluoro-N-3-isoxazolyl-2-oxo-1,2-dihydro-6-quinolinesulfonamide] | 10 nM |
| COc1cc(-c2cccc(F)c2)c(C)cc1-n1c(=O)cc(C)c2cc(S(=O)(=O)Nc3ccon3)ccc21 (atropisomer, axis not shown; (P)) [Example 568, (P)-1-(3′-fluoro-5-methoxy-2-methyl-4-biphenylyl)-N-3-isoxazolyl-4-methyl-2-oxo-1,2-dihydro-6-quinolinesulfonamide] | 92 nM |
| COc1cc(-c2cc(F)cc(F)c2)c(C)cc1-n1c(=O)cc(C)c2cc(S(=O)(=O)Nc3ccon3)ccc21 (atropisomer, axis not shown; (P)) [Example 570, (P)-1-(3′,5′-difluoro-5-methoxy-2-methyl-4-biphenylyl)-N-3-isoxazolyl-4-methyl-2-oxo-1,2-dihydro-6-quinolinesulfonamide] | 67 nM |
| COc1cc(-c2cccc(F)c2)c(F)cc1-n1c(=O)cc(C)c2cc(S(=O)(=O)Nc3ccon3)ccc21 (atropisomer, axis not shown; (P)) [Example 572, (P)-1-(2,3′-difluoro-5-methoxy-4-biphenylyl)-N-3-isoxazolyl-4-methyl-2-oxo-1,2-dihydro-6-quinolinesulfonamide] | 485 nM |
| COc1cc(Br)ccc1-n1c(=O)ccc2cc(S(=O)(=O)Nc3ccon3)ccc21 (atropisomer, axis not shown; (P)) [Example 574, (P)-1-(4-bromo-2-methoxyphenyl)-N-3-isoxazolyl-2-oxo-1,2-dihydro-6-quinolinesulfonamide] | 772 nM |
| COc1cc(-c2cccc(C)c2)ccc1-n1c(=O)ccc2cc(S(=O)(=O)Nc3ccon3)ccc21 (atropisomer, axis not shown; (P)) [Example 584, (P)-N-3-isoxazolyl-1-(3-methoxy-3′-methyl-4-biphenylyl)-2-oxo-1,2-dihydro-6-quinolinesulfonamide] | 13 nM |
| COc1cc(-c2ccc(C(F)(F)F)cc2)c(F)cc1-n1c(=O)ccc2cc(S(=O)(=O)Nc3ncco3)ccc21 (atropisomer, axis not shown; (P)) [Example 636, (P)-1-(2-fluoro-5-methoxy-4′-(trifluoromethyl)-4-biphenylyl)-N-1,3-oxazol-2-yl-2-oxo-1,2-dihydro-6-quinolinesulfonamide] | 31 nM |

The remaining lines, values ahead:

| IC50 | SMILES |
| --- | --- |
| 40 nM | COc1cc(-c2ccc(C)c(F)c2)ccc1-n1c(=O)ccc2cc(S(=O)(=O)Nc3ccon3)ccc21 (atropisomer, axis not shown; (P)) [Example 576, (P)-1-(3′-fluoro-3-methoxy-4′-methyl-4-biphenylyl)-N-3-isoxazolyl-2-oxo-1,2-dihydro-6-quinolinesulfonamide] |
| 16 nM | COc1cc(-c2ccc(F)c(Cl)c2)ccc1-n1c(=O)ccc2cc(S(=O)(=O)Nc3ccon3)ccc21 (atropisomer, axis not shown; (P)) [Example 578, (P)-1-(3′-chloro-4′-fluoro-3-methoxy-4-biphenylyl)-N-3-isoxazolyl-2-oxo-1,2-dihydro-6-quinolinesulfonamide] |
| 11 nM | COc1cc(-c2ccc(Cl)c(F)c2)ccc1-n1c(=O)ccc2cc(S(=O)(=O)Nc3ccon3)ccc21 (atropisomer, axis not shown; (P)) [Example 580, (P)-1-(4′-chloro-3′-fluoro-3-methoxy-4-biphenylyl)-N-3-isoxazolyl-2-oxo-1,2-dihydro-6-quinolinesulfonamide] |
| 8 nM | COc1cc(-c2cc(C)cc(Cl)c2)ccc1-n1c(=O)ccc2cc(S(=O)(=O)Nc3ccon3)ccc21 (atropisomer, axis not shown; (P)) [Example 585, (P)-1-(3′-chloro-3-methoxy-5′-methyl-4-biphenylyl)-N-3-isoxazolyl-2-oxo-1,2-dihydro-6-quinolinesulfonamide] |
| 20 nM | COc1cc(-c2ccc(C)c(Cl)c2)ccc1-n1c(=O)ccc2cc(S(=O)(=O)Nc3ccon3)ccc21 (atropisomer, axis not shown; (P)) [Example 587, (P)-1-(3′-chloro-3-methoxy-4′-methyl-4-biphenylyl)-N-3-isoxazolyl-2-oxo-1,2-dihydro-6-quinolinesulfonamide] |

Same assay, conditions: in-vitro Nav 1.7 PX data

| SMILES | IC50 |
| --- | --- |
| COc1cc(-c2cccc(F)c2)ncc1-n1c(=O)ccc2cc(S(=O)(=O)Nc3ccon3)ccc21 (atropisomer, axis not shown; (P)) [Example 602, (P)-1-(6-(3-fluorophenyl)-4-methoxy-3-pyridinyl)-N-3-isoxazolyl-2-oxo-1,2-dihydro-6-quinolinesulfonamide] | 709 nM |
| COc1ccc(-c2cccc(F)c2)cc1-n1c(=O)ccc2cc(S(=O)(=O)Nc3ncccn3)ccc21 (atropisomer, axis not shown; (P)) [Example 606, (P)-1-(3′-fluoro-4-methoxy-3-biphenylyl)-2-oxo-N-2-pyrimidinyl-1,2-dihydro-6-quinolinesulfonamide] | 159 nM |
| COc1ccc(-c2cc(F)cc(Cl)c2)cc1-n1c(=O)ccc2cc(S(=O)(=O)Nc3ccncn3)ccc21 (atropisomer, axis not shown; (P)) [Example 611, (P)-1-(3′-chloro-5′-fluoro-4-methoxy-3-biphenylyl)-2-oxo-N-4-pyrimidinyl-1,2-dihydro-6-quinolinesulfonamide] | 29 nM |
| COc1cc(Cl)c(-c2cc(F)cc(Cl)c2)cc1-n1c(=O)ccc2cc(S(=O)(=O)Nc3ccon3)ccc21 (atropisomer, axis not shown; (P)) [Example 614, (P)-1-(3′,6-dichloro-5′-fluoro-4-methoxy-3-biphenylyl)-N-3-isoxazolyl-2-oxo-1,2-dihydro-6-quinolinesulfonamide] | 9 nM |
| COc1cc(-c2ccc(Cl)cc2)c(F)cc1-n1c(=O)ccc2cc(S(=O)(=O)Nc3ccon3)ccc21 (atropisomer, axis not shown; (P)) [Example 633, (P)-1-(4′-chloro-2-fluoro-5-methoxy-4-biphenylyl)-N-3-isoxazolyl-2-oxo-1,2-dihydro-6-quinolinesulfonamide] | 7 nM |
| Cc1cc(-c2cc(C)c(-n3c(=O)ccc4cc(S(=O)(=O)Nc5ncccn5)ccc43)cc2F)ccc1Cl (atropisomer, axis not shown; (P)) [Example 649] | 49 nM |
| COc1cc(-c2ccc(Cl)c(C)c2)c(F)cc1-n1c(=O)ccc2cc(S(=O)(=O)Nc3ncon3)ccc21 (atropisomer, axis not shown; (P)) [Example 663, (P)-1-(4′-chloro-2-fluoro-5-methoxy-3′-methyl-4-biphenylyl)-N-1,2,4-oxadiazol-3-yl-2-oxo-1,2-dihydro-6-quinolinesulfonamide] | 6 nM |
| COc1cc(-c2cccc(C(F)(F)F)c2)ccc1-n1c(=O)ccc2cc(S(=O)(=O)Nc3ccncn3)ccc21 (atropisomer, axis not shown; (P)) [Example 671, (P)-1-(3-methoxy-3′-(trifluoromethyl)-4-biphenylyl)-2-oxo-N-4-pyrimidinyl-1,2-dihydro-6-quinolinesulfonamide] | 11 nM |
| COc1cc(-c2ccc(-n3c(=O)ccc4cc(S(=O)(=O)Nc5ccon5)ccc43)c(OC)c2)ccc1C (atropisomer, axis not shown; (P)) [Example 686, (P)-1-(3,3′-dimethoxy-4′-methyl-4-biphenylyl)-N-3-isoxazolyl-2-oxo-1,2-dihydro-6-quinolinesulfonamide] | 15 nM |
| COc1cc(-c2ccc(Cl)c(C)c2)ccc1-n1c(=O)ccc2cc(S(=O)(=O)Nc3ccc(F)cn3)ccc21 (atropisomer, axis not shown; (P)) [Example 689, (P)-1-(4′-chloro-3-methoxy-3′-methyl-4-biphenylyl)-N-(5-fluoro-2-pyridinyl)-2-oxo-1,2-dihydro-6-quinolinesulfonamide] | 50 nM |
| COc1cc(-c2ccc(Cl)c(C)c2)ccc1-n1c(=O)ccc2cc(S(=O)(=O)Nc3ncc(F)cn3)ccc21 (atropisomer, axis not shown; (P)) [Example 690, (P)-1-(4′-chloro-3-methoxy-3′-methyl-4-biphenylyl)-N-(5-fluoro-2-pyrimidinyl)-2-oxo-1,2-dihydro-6-quinolinesulfonamide] | 49 nM |

More lines, now with the values ahead:

| IC50 | SMILES |
| --- | --- |
| 12 nM | COc1cc(Cl)c(-c2cccc(F)c2)cc1-n1c(=O)ccc2cc(S(=O)(=O)Nc3ccon3)ccc21 (atropisomer, axis not shown; (P)) [Example 608, (P)-1-(6-chloro-3′-fluoro-4-methoxy-3-biphenylyl)-N-3-isoxazolyl-2-oxo-1,2-dihydro-6-quinolinesulfonamide] |
| 15 nM | COc1nc(-c2cc(F)cc(F)c2)c(Cl)cc1-n1c(=O)ccc2cc(S(=O)(=O)Nc3ccon3)ccc21 (atropisomer, axis not shown; (P)) [Example 665, (P)-1-(5-chloro-6-(3,5-difluorophenyl)-2-methoxy-3-pyridinyl)-N-3-isoxazolyl-2-oxo-1,2-dihydro-6-quinolinesulfonamide] |

Same assay, conditions: in-vitro Nav 1.7 PX data (PatchXpress)

| IC50 | SMILES |
| --- | --- |
| 127 nM | O=c1ccc2cc(S(=O)(=O)Nc3ccon3)ccc2n1-c1ccc(-c2cc(F)cc(F)c2)cc1C1CC1 (atropisomer, axis not shown; (P)) [Example 629, (P)-1-(3-cyclopropyl-3′,5′-difluoro-4-biphenylyl)-N-3-isoxazolyl-2-oxo-1,2-dihydro-6-quinolinesulfonamide] |
